Assay results from publication PMC12002301, “Discovery and functional characterization of a bombesin-type neuropeptide signaling system in an invertebrate” (Proceedings of the National Academy of Sciences of the …, 2025).

Assays:
tube foot preparations = assay: In vitro contraction of tube foot preparations; parameters: species or system Asterias rubens; details: words, ArBN 10^-9 to 10^-6 M
Protocol: (§1) ArBN (EPRRNYNRVFGPTY-NH2), ArBN5-14 (NYNRVFGPTY-NH2), and ArBNP65-81 (EPMPSSLALYIANLSP-NH2), were tested for effects on in vitro cardiac stomach and tube foot preparations from A. rubens. The preparations were dissected as described previously ([43], [59]–[61]), with the organs immersed in ice-cold artificial seawater during dissection. A description of the methods employed for investigation of in vitro effects of ArBN on cardiac stomach and tube foot preparations from A. rubens is included in SI Appendix, SI Methods. […]
(§2) Wax was removed from slides using xylene (3 × 10 min) and then slides were immersed in 100% ethanol (2 × 10 min). 0.3% hydrogen peroxide (VWR Chemicals, UK) in methanol was used to quench endogenous peroxidases for 30 min and then an ethanol series (90%, 70%, 50%), distilled water and PBST were used to rehydrate the tissue sections. 5% goat serum (Sigma-Aldrich, UK) made up in PBST was used for blocking for 2 h at room temperature. […]
(§3) All the dissected preparations were set up in an aerated organ bath filled with 20 ml artificial seawater maintained at approximately 11°C. Changes in the contractile state of preparations were detected by the transducer, which was linked via a bridge amplifier (FE221 Bridge Amp, ADInstruments Ltd, Oxford, UK) to data acquisition hardware (PowerLab 2/36, ADInstruments Ltd, Oxford, UK). […]

[1] = tested on: cardiac stomach preparations; assay: In vitro contraction of cardiac stomach preparations; parameters: species or system Asterias rubens; details: words, ArBN 10^-9 to 10^-6 M
Protocol: as §1, §2, §3

| Substance | effect on tube foot preparations (tube foot preparations) | effect on cardiac stomach preparations [1] |
| --- | --- | --- |
| EPMPSSLALYIANLSP-NH2 [ArBNP65-81, C-terminally amidated 16-residue peptide predicted to be derived from residues 65 to 81 of ArBNP] | neither ArBN5-14 nor ArBNP65-81 had any observable effect | neither ArBN5-14 nor ArBNP65-81 had any observable effect |
| NYNRVFGPTY-NH2 [ArBN5-14, C-terminally amidated 10-residue peptide corresponding to the C-terminal region of ArBN] | neither ArBN5-14 nor ArBNP65-81 had any observable effect | neither ArBN5-14 nor ArBNP65-81 had any observable effect |
